Reference: patent US10358434B2, “2-(3-pyridinyl)-1H-benzimidazole derivative compound and medicament containing same” (NIHON MEDI-PHYSICS CO., LTD., priority 2014, dated 2019)

What was measured:
[1] = Plasma stability evaluation (TLC analysis); assay type: in vitro ADME; conditions: 37° C., 60 minutes, TLC analysis
Outline: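 Radiolabelled compounds were incubated in heparin-treated pooled normal human plasma at 37° C for 60 minutes. After methanol deproteinization and centrifugation, stability was assessed by TLC under the conditions used for each compound's synthesis.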

[2] = system: human adrenal gland section expressing aldosterone-producing adenoma; experiment: In vitro autoradiography using human adrenal adenoma; assay type: binding; conditions: section of FIG. 17(b)
Outline: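 Frozen 7-μm sections of human adrenal bearing aldosterone-producing adenoma were immersed 10 min in radioligand (5-33 kBq/mL) in PBS with 1% fatty-acid-free BSA, washed, then exposed to imaging plates for 16-20 h. Equal-area ROI PSL in adenoma (B2) versus normal cortex (B1) gave B2/B1, corrected for nuclide half-life, added activity and exposure time.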

[3] = In vivo kinetics experiment (radioactivity distribution); parameters: species or system Wistar male rat; conditions: rat i.v., mean ± SD
Outline: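 Male Wistar rats (9 weeks) under isoflurane received approximately 1 to 3.7 MBq radiotracer in saline with 1 w/v % ascorbic acid by tail-vein injection. At 10, 30 and 60 min, rats were exsanguinated; blood, organs and remaining body weighed and counted, giving % ID/g and adrenal-to-tissue ratios.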

## FCCn1c(-c2cncc(Cn3cncc3[123I])c2)nc2cc(F)c(Cl)cc21 [[^123I] 610, 6-Chloro-5-fluoro-1-(2-fluoroethyl)-2-{5-(5-[^123I]iodo-1H-imidazol-1-ylmethyl)pyridin-3-yl}benzimidazole]
[1]
  Radiochemical purity after incubation in human plasma: 92%
[2]
  B2/B1 accumulation ratio: 0.95
[2]; site 71b
  B2 (PSL value, aldosterone-producing adenoma): 2786
[2]; site 72b
  B1 (PSL value, normal adrenal cortex): 2931
[3]; 10 min after administration
  Adrenal gland/blood ratio of radioactivity accumulation: 27.61 ± 6.22
  Adrenal gland/fat ratio of radioactivity accumulation: 100.35 ± 29.67
  Adrenal gland/kidney ratio of radioactivity accumulation: 14.48 ± 2.49
  Adrenal gland/liver ratio of radioactivity accumulation: 3.68 ± 0.80
  Adrenal gland/muscle ratio of radioactivity accumulation: 62.69 ± 29.38
  Adrenal gland/small intestine ratio of radioactivity accumulation: 18.10 ± 4.67
  Radioactivity distribution Adrenal gland: 12.62 ± 2.99 % ID/g
  Radioactivity distribution Bladder (including urine): 0.22 ± 0.08 % ID/g
  Radioactivity distribution Blood: 0.46 ± 0.03 % ID/g
  Radioactivity distribution Fat: 0.13 ± 0.02 % ID/g
  Radioactivity distribution Femur: 3.25 ± 0.85 % ID/g
  Radioactivity distribution Heart: 0.33 ± 0.02 % ID/g
  Radioactivity distribution Kidney: 0.86 ± 0.06 % ID/g
  Radioactivity distribution Large intestine: 0.13 ± 0.02 % ID/g
  Radioactivity distribution Liver: 3.43 ± 0.26 % ID/g
  Radioactivity distribution Lung: 0.49 ± 0.03 % ID/g
  Radioactivity distribution Muscle (lower limbs): 0.21 ± 0.05 % ID/g
  Radioactivity distribution Remaining whole body: 0.30 ± 0.04 % ID/g
  Radioactivity distribution Small intestine: 0.71 ± 0.10 % ID/g
  Radioactivity distribution Spleen: 1.43 ± 0.11 % ID/g
  Radioactivity distribution Stomach: 0.66 ± 0.21 % ID/g
  Radioactivity distribution Testis: 0.13 ± 0.02 % ID/g
  Radioactivity distribution Whole brain: 0.04 ± 0.00 % ID/g
[3]; 30 min after administration
  Adrenal gland/blood ratio of radioactivity accumulation: 23.78 ± 2.07
  Adrenal gland/fat ratio of radioactivity accumulation: 88.69 ± 3.10
  Adrenal gland/kidney ratio of radioactivity accumulation: 28.65 ± 3.77
  Adrenal gland/liver ratio of radioactivity accumulation: 6.43 ± 0.94
  Adrenal gland/muscle ratio of radioactivity accumulation: 94.79 ± 8.71
  Adrenal gland/small intestine ratio of radioactivity accumulation: 16.12 ± 2.61
  Radioactivity distribution Adrenal gland: 15.71 ± 1.59 % ID/g
  Radioactivity distribution Bladder (including urine): 0.28 ± 0.08 % ID/g
  Radioactivity distribution Blood: 0.66 ± 0.04 % ID/g
  Radioactivity distribution Fat: 0.18 ± 0.01 % ID/g
  Radioactivity distribution Femur: 19.34 ± 6.00 % ID/g
  Radioactivity distribution Heart: 0.31 ± 0.02 % ID/g
  Radioactivity distribution Kidney: 0.55 ± 0.02 % ID/g
  Radioactivity distribution Large intestine: 0.16 ± 0.03 % ID/g
  Radioactivity distribution Liver: 2.46 ± 0.18 % ID/g
  Radioactivity distribution Lung: 0.53 ± 0.02 % ID/g
  Radioactivity distribution Muscle (lower limbs): 0.17 ± 0.02 % ID/g
  Radioactivity distribution Remaining whole body: 0.31 ± 0.02 % ID/g
  Radioactivity distribution Small intestine: 0.98 ± 0.06 % ID/g
  Radioactivity distribution Spleen: 1.00 ± 0.04 % ID/g
  Radioactivity distribution Stomach: 1.27 ± 0.33 % ID/g
  Radioactivity distribution Testis: 0.25 ± 0.02 % ID/g
  Radioactivity distribution Whole brain: 0.04 ± 0.00 % ID/g
[3]; 60 min after administration
  Adrenal gland/blood ratio of radioactivity accumulation: 27.80 ± 8.18
  Adrenal gland/fat ratio of radioactivity accumulation: 120.42 ± 43.06
  Adrenal gland/kidney ratio of radioactivity accumulation: 40.68 ± 13.23
  Adrenal gland/liver ratio of radioactivity accumulation: 20.57 ± 8.91
  Adrenal gland/muscle ratio of radioactivity accumulation: 147.93 ± 55.03
  Adrenal gland/small intestine ratio of radioactivity accumulation: 15.84 ± 3.51
  Radioactivity distribution Adrenal gland: 19.09 ± 6.65 % ID/g
  Radioactivity distribution Bladder (including urine): 0.29 ± 0.08 % ID/g
  Radioactivity distribution Blood: 0.68 ± 0.05 % ID/g
  Radioactivity distribution Fat: 0.16 ± 0.03 % ID/g
  Radioactivity distribution Femur: 44.38 ± 12.58 % ID/g
  Radioactivity distribution Heart: 0.28 ± 0.04 % ID/g
  Radioactivity distribution Kidney: 0.47 ± 0.02 % ID/g
  Radioactivity distribution Large intestine: 0.19 ± 0.02 % ID/g
  Radioactivity distribution Liver: 0.95 ± 0.10 % ID/g
  Radioactivity distribution Lung: 0.50 ± 0.03 % ID/g
  Radioactivity distribution Muscle (lower limbs): 0.13 ± 0.01 % ID/g
  Radioactivity distribution Remaining whole body: 0.31 ± 0.02 % ID/g
  Radioactivity distribution Small intestine: 1.18 ± 0.18 % ID/g
  Radioactivity distribution Spleen: 0.78 ± 0.25 % ID/g
  Radioactivity distribution Stomach: 2.97 ± 0.54 % ID/g
  Radioactivity distribution Testis: 0.32 ± 0.05 % ID/g
  Radioactivity distribution Whole brain: 0.03 ± 0.00 % ID/g
